Source: publication PMC3827198, “Characterisation of AmphiAmR11, an Amphioxus (Branchiostoma floridae) D2-Dopamine-Like G Protein-Coupled Receptor” (PLoS ONE, 2013)
Structures can show the parent of a compound that is named as a salt.

Key:
[1] = test system: dopamine-induced ERK1/2 activation; test: Effect of pertussis toxin and signalling inhibitors on agonist-induced ERK1/2 activation in AmphiAmR11-expressing CHO-K1 cells; assay type: cell-based, Chinese hamster; conditions: 10 µM inhibitor, 10 nM dopamine, 5 minutes
Experimental: Phospho-extracellular signal-related kinase (Phospho-ERK) levels were determined essentially as described previously. Minor modifications have been described. ERK1/2 phosphorylation levels were quantified by densitometry. The developed films were scanned in and analysed using the software program, Aida. The data generated by Aida was then processed using Microsoft Excel. Values for the kinase expression and activity levels were defined as 100% in the control samples. Student’s T-test (two-tailed and unpaired) was used to test for significance.
Figure 5 Effect of pertussis toxin and signalling inhibitors on dopamine-induced ERK1/2 activation in AmphiAmR11-expressing CHO-K1 cells. For the pertussis toxin experiment, AmphiAmR11-expressing CHO-K1 cells were pre-incubated with pertussis toxin (200 ng/ml) for 16 hours prior to serum-starvation for 2 hours in the absence of the toxin. Cells were then stimulated for 5 mins with 10 nM dopamine (open bar) or F-12 Hams control (black bar). For all other inhibitors, AmphiAmR11-expressing CHO-K1 cells were serum starved for 2 hours including incubation with 10 µM inhibitor or F-12 Hams control for the final 20 (AG1296 and AG1478) or 30 (PP2, LY294002, Ro31-8220, U0126, U73122 and U73343) minutes. Cells were then stimulated for 5 minutes with 10 nM dopamine […] in the presence of the inhibitor. Basal measurement in the absence of dopamine and inhibitor (first black bar) and the dopamine-only response in the absence of inhibitor (first open bar) are shown. (A) Representative blots from three or four independent experiments. […] Data are expressed as the mean + SEM. n = 3 - 4. DA, dopamine; PTX, pertussis toxin; Ro, Ro 31-8220; LY, LY294002.
Figure S3. Time courses for the effect of dopamine and tyramine on ERK1/2 phosphorylation in AmphiAmR11-expressing CHO-K1 cells. (A and B) AmphiAmR11-expressing CHO-K1 cells were serum-starved for 2 hours, prior to stimulation with tyramine or dopamine at the specified concentration for the specified length of time. Equal quantities of cell lysates were separated by SDS-PAGE and analysed for pERK or tERK by Western blotting. (C and D): AmphiAmR11-expressing CHO-K1 cells were incubated with pertussis toxin (200 ng/mL) for 16 hours followed by stimulation as described for Figures A and B. (A to D) Representative blot for each condition from three to four independent experiments. (E) Summary of the quantified blots. Data are expressed as the mean ± SEM. n = 3-4. PTX, pertussis toxin; Min, minutes.

D2-dopamine receptors = test system: D2-dopamine receptors; set-up: method as in PMID 10531409, PMID 9572301; conditions: cited from earlier work
D3-dopamine receptors = test system: D3-dopamine receptors; set-up: method as in PMID 10531409, PMID 9572301; conditions: cited from earlier work
AmphiAmR11 [2] = target: T1, AmphiAmR11 (Branchiostoma floridae, UniProt A0PF35); test: Block of tyramine-induced inhibition of forskolin-stimulated cAMP levels in AmphiAmR11-expressing CHO-K1 cells; assay type: cell-based; conditions: 30 nM tyramine; for Block of tyramine-induced inhibition of forskolin-stimulated cAMP levels: 10 µM forskolin
T1 sequence (A0PF35 entry or part of it): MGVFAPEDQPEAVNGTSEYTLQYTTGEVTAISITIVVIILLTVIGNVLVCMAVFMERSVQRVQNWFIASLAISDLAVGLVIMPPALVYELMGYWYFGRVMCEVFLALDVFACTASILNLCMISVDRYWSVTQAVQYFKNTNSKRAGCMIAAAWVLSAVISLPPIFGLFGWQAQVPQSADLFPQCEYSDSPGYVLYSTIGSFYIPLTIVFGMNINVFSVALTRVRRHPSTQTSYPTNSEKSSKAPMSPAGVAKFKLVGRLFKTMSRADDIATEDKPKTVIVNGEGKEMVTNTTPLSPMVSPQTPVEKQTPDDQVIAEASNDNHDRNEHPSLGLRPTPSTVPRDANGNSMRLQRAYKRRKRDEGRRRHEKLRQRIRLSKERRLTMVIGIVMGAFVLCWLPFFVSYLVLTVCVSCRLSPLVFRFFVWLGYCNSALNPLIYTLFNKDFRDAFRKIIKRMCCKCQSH

DD2R = test system: DD2R; set-up: method as in PMID 12391323; conditions: cited from earlier work; for Antagonist effect at invertebrate D2-like receptor DD2R at high concentration: 10 µM
CeDOP2S = test system: CeDOP2S; set-up: method as in PMID 12887685; conditions: cited from earlier work; for Antagonist effect at invertebrate D2-like receptor CeDOP2S at high concentration: 10 µM
CeDOP2L = test system: CeDOP2L; set-up: method as in PMID 12887685; conditions: cited from earlier work; for Antagonist effect at invertebrate D2-like receptor CeDOP2L at high concentration: 10 µM
AmphiAmR11 [3] = target: T1, AmphiAmR11; test: ERK1/2 phosphorylation in AmphiAmR11-expressing CHO-K1 cells (Western blotting); assay type: cell-based; conditions: for Effect of antagonist on ERK1/2 phosphorylation in the absence of dopamine: 1 μM antagonist
AmphiAmR11 [4] = target: T1, AmphiAmR11; test: Block of dopamine-induced ERK1/2 activation in AmphiAmR11-expressing CHO-K1 cells by antagonists; assay type: cell-based; conditions: 1 µM antagonist, 10 nM dopamine, 5 min
AmphiAmR11 [5] = target: T1, AmphiAmR11; test: Inhibition of forskolin-stimulated cAMP levels in AmphiAmR11-expressing CHO-K1 cells (agonist mode); assay type: cell-based; conditions: for Decrease of forskolin-stimulated cAMP levels by antagonist in the absence of agonist: 1 μM antagonist; for Agonist type at AmphiAmR11 (full or partial): cAMP assay; for Inhibition of forskolin-stimulated cAMP levels (maximal): concentration-response curves, absence of other agonist
Experimental: CHO-K1 cells were maintained in Ham’s F-12 nutrient media (Invitrogen Life Sciences) supplemented with 10% charcoal-stripped foetal bovine serum (CS-FBS) (Hyclone, Cramlington, UK), 50 U/μg penicillin/streptomycin and 4 mM L-glutamine (Invitrogen Life Sciences) in 5% CO2 at 37°C. Stably transfected cell lines were generated by the transfection of CHO-K1 cells using Lipofectamine (Invitrogen Life Sciences) as described previously [8, 9].
cAMP levels in stably transfected CHO-K1 cells were determined as described previously [8, 9, 21], except 100 µM isobutylmethylxanthine (IBMX) was used. cAMP levels are represented as a percentage of basal samples unless otherwise stated. Student’s T-test (two-tailed and unpaired) was used to test for significance. Unless otherwise stated, all data are shown as mean ± SEM. Each data point plotted was the mean of data obtained from at least three experiments. Within each experiment three separate replicate wells were analysed for each condition and the cAMP assays on each of the wells was carried out in duplicate.
Forskolin was used both to increase basal cAMP levels to make it easier to detect increases and decreases in cAMP levels in the same experiments and also to potentiate responses to agonists to more accurately determine their threshold effects [see 22]. A non-saturating 10 µM concentration of forskolin was used.
Figure 1 Effect of biogenic amines and synthetic agonists on forskolin-stimulated cAMP levels in AmphiAmR11-expressing CHO-K1 cells. Cells were pre-incubated with 100 µM IBMX for 20 min, followed by incubation with 10 µM forskolin and 100 µM IBMX in the presence of increasing concentrations of various biogenic amines (A) or synthetic agonists (B) for a further 20 min. Data are expressed as the mean ± SEM. n ≥ 3.

AmphiAmR4 = test system: AmphiAmR4; set-up: method as in PMID 23183848; conditions: cited from earlier work
human 5HT1A receptor = conditions: cited from earlier work
AmphiAmR11 [6] = target: T1, AmphiAmR11; test: cell-based; assay type: cell-based
AmphiAmR11 [7] = target: T1, AmphiAmR11; test: Calcium mobilisation in AmphiAmR11-expressing CHO-K1 cells (Fura-2, percentage of responding cells per field of view); assay type: cell-based; conditions: 3 minutes exposure; read-out: EC50 for calcium mobilisation (percentage of responding cells per field of view)
Experimental: Stably transfected CHO-K1 cells were assayed for changes in intracellular calcium levels using an Olympus Cell^R imaging system and the fluorescent indicator Fura-2, as described previously, with modifications described by Bayliss et al.. At 1 minute into the experiment, a buffer control was added and at 2 minutes into the experiment, the specified concentration of agonist was added. A single coverslip of cells was used per concentration of agonist and the percentage of cells that responded per field of view was calculated. The results from each coverslip gave an n of 1 and each agonist concentration was repeated at least three times on different days.
Figure 6 Effect of biogenic amines and calcium pathway inhibitors on calcium mobilisation in AmphiAmR11-expressing CHO-K1 cells. AmphiAmR11-expressing cells were exposed to increasing concentrations (A) or 10 nM (B) of biogenic amines for 3 minutes and the number of responding cells per field of view were calculated. Data are expressed as the mean ± SEM. n ≥ 3. FOV, field of view; DA, dopamine; TA, tyramine; NA, noradrenaline; Adr, adrenaline; OA, octopamine.

[8] = 10 µM forskolin, 100 µM IBMX, 20 min, full concentration response curves, read-out: EC50 for decrease in forskolin-stimulated cAMP levels

O=c1cc(N2CCOCC2)oc2c(-c3ccccc3)cccc12 [LY294002]
Effect of inhibitor on dopamine-induced ERK1/2 phosphorylation [1]: significantly reduced
Effect on D2-mediated ERK1/2 activation in CHO cells (D2-dopamine receptors): partially reduce
Effect on D3-mediated ERK1/2 activation in CHO cells (D3-dopamine receptors): partially reduce

CN1CCc2cc(Cl)c(O)cc2[C@@H](c2ccccc2)C1 [SCH23390, R(+)-7-chloro-8-hydroxy-3-methyl-1-phenyl-2,3,4,5-tetrahydro-^1H-3-benzazepine hydrochloride]
Block of tyramine-induced inhibition of forskolin-stimulated cAMP levels (AmphiAmR11 [2]; 1 μM antagonist): no significant blocking effect
Effect on dopamine-mediated signalling via DD2R (DD2R): not to affect
Effect on dopamine-mediated signalling via CeDOP2S (CeDOP2S): not to affect
Effect on dopamine-mediated signalling via CeDOP2L (CeDOP2L): not to affect

CC(C)(C)[C@]1(O)CCN2C[C@H]3c4ccccc4CCc4cccc(c43)[C@@H]2C1 [butaclamol, (+)-butaclamol hydrochloride]
Block of tyramine-induced inhibition of forskolin-stimulated cAMP levels (AmphiAmR11 [2]; 1 μM antagonist): no significant blocking effect
Effect of antagonist on ERK1/2 phosphorylation in the absence of dopamine (AmphiAmR11 [3]): did not exhibit any agonistic properties
Block of dopamine-induced ERK1/2 activation (AmphiAmR11 [4]): no significant effect
Antagonist effect at invertebrate D2-like receptor DD2R at high concentration (DD2R): only a partial effect
Antagonist effect at invertebrate D2-like receptor CeDOP2S at high concentration (CeDOP2S): only a partial effect
Antagonist effect at invertebrate D2-like receptor CeDOP2L at high concentration (CeDOP2L): only a partial effect

CN(C)CCCN1c2ccccc2Sc2ccc(Cl)cc21 [chlorpromazine]
Effect on dopamine-mediated signalling via DD2R (DD2R): not to affect
Effect on dopamine-mediated signalling via CeDOP2S (CeDOP2S): not to affect
Effect on dopamine-mediated signalling via CeDOP2L (CeDOP2L): not to affect

Cl.Cl.OCCN1CCN(CC/C=C2/c3ccccc3Sc3ccc(C(F)(F)F)cc32)CC1 [flupenthixol, cis-(Z)-flupenthixol dihydrochloride]
Block of tyramine-induced inhibition of forskolin-stimulated cAMP levels (AmphiAmR11 [2]; 1 μM antagonist): no significant blocking effect
Effect of antagonist on ERK1/2 phosphorylation in the absence of dopamine (AmphiAmR11 [3]): did not exhibit any agonistic properties
Block of dopamine-induced ERK1/2 activation (AmphiAmR11 [4]): no significant effect
Antagonist effect at invertebrate D2-like receptor DD2R at high concentration (DD2R): only a partial effect
Antagonist effect at invertebrate D2-like receptor CeDOP2S at high concentration (CeDOP2S): only a partial effect
Antagonist effect at invertebrate D2-like receptor CeDOP2L at high concentration (CeDOP2L): only a partial effect

c1ccc2c(CC3=NCCN3)cccc2c1 [naphazoline, naphazoline hydrochloride]
Effect on forskolin-stimulated cAMP levels at 1 µM (AmphiAmR11 [5]; 1 µM agonist, 10 µM forskolin, 100 µM IBMX, 20 min): most effective agonists
EC50 (AmphiAmR11 [5]; [8]): 0.287 nM
Effect on ERK1/2 phosphorylation at 100 nM (AmphiAmR11 [3]; 100 nM synthetic agonist, 5 min): increased the ERK1/2 phosphorylation level above that of the basal condition
Effect on ERK1/2 phosphorylation at 1 µM (AmphiAmR11 [3]; 1 µM synthetic agonist, 5 min, dopamine as reference): most effective of the synthetic agonists
Agonist activity at AmphiAmR4 (AmphiAmR4): most potent agonist

COC(=O)[C@H]1[C@H]2C[C@H]3c4[nH]c5ccccc5c4CCN3C[C@H]2CC[C@@H]1O [rauwolscine, rauwolscine hydrochloride]
EC50 (AmphiAmR11 [5]): 121 nM
Decrease of forskolin-stimulated cAMP levels by antagonist in the absence of agonist (AmphiAmR11 [5]; 10 µM forskolin): could inhibit forskolin-stimulated cAMP levels
Agonist type at AmphiAmR11 (full or partial) (AmphiAmR11 [5]): full agonists
Inhibition of forskolin-stimulated cAMP levels (maximal) (AmphiAmR11 [5]): greater than 90%
Block of tyramine-induced inhibition of forskolin-stimulated cAMP levels (AmphiAmR11 [2]; 1 μM antagonist): no significant blocking effect
Effect of antagonist on ERK1/2 phosphorylation in the absence of dopamine (AmphiAmR11 [3]): increase in ERK1/2 phosphorylation
Block of dopamine-induced ERK1/2 activation (AmphiAmR11 [4]): no significant effect
Agonist activity at human 5HT1A receptor (human 5HT1A receptor): partial agonist activity

O=C(CCCN1CCC2(CC1)C(=O)NCN2c1ccccc1)c1ccc(F)cc1 [spiperone, spiperone hydrochloride]
Effect of antagonist on ERK1/2 phosphorylation in the absence of dopamine (AmphiAmR11 [3]): did not exhibit any agonistic properties
Block of dopamine-induced ERK1/2 activation (AmphiAmR11 [4]): no significant effect
Effect on dopamine-mediated signalling via DD2R (DD2R): little or no effect
Effect on dopamine-mediated signalling via CeDOP2S (CeDOP2S): little or no effect
Effect on dopamine-mediated signalling via CeDOP2L (CeDOP2L): little or no effect

NCCc1ccc(O)cc1 [tyramine, tyramine hydrochloride]
EC50 (AmphiAmR11 [5]; [8]): 7.47 nM
Concentrations coupling AmphiAmR11 to an increase in cAMP levels (AmphiAmR11 [6]; after pertussis toxin): above 1 µM
Effect on forskolin-stimulated cAMP levels following pertussis toxin treatment (AmphiAmR11 [6]; amines at 100 µM, pertussis toxin 200 ng/mL, 16 hours): increase in forskolin-stimulated cAMP levels
Concentration dependence of increase in forskolin-stimulated cAMP levels following pertussis toxin (AmphiAmR11 [6]; pertussis toxin 200 ng/mL, 16 h, up to 100 µM): concentration-dependent effects
EC50 (AmphiAmR11 [3]): 18.2 nM
Duration of ERK1/2 phosphorylation response after the peak (AmphiAmR11 [3]; 1 µM tyramine (level by 30 minutes) or 30 nM dopamine): approximately half that of its peak at 5 minutes
Time of peak ERK1/2 phosphorylation (AmphiAmR11 [3]; 1 µM tyramine or 30 nM dopamine): approximately 5 minutes
EC50 (AmphiAmR11 [7]): 767 nM

COC[C@H]1OC(=O)c2coc3c2[C@@]1(C)C1=C(C3=O)[C@@H]2CCC(=O)[C@@]2(C)C[C@H]1OC(C)=O [wortmannin]
Effect on D2-mediated ERK1/2 activation in CHO cells (D2-dopamine receptors): partially reduce
Effect on D3-mediated ERK1/2 activation in CHO cells (D3-dopamine receptors): partially reduce

COC(=O)[C@@H]1[C@H]2C[C@H]3c4[nH]c5ccccc5c4CCN3C[C@@H]2CC[C@@H]1O [yohimbine, yohimbine hydrochloride]
EC50 (AmphiAmR11 [5]): 17.1 nM
Decrease of forskolin-stimulated cAMP levels by antagonist in the absence of agonist (AmphiAmR11 [5]; 10 µM forskolin): could inhibit forskolin-stimulated cAMP levels
Agonist type at AmphiAmR11 (full or partial) (AmphiAmR11 [5]): full agonists
Inhibition of forskolin-stimulated cAMP levels (maximal) (AmphiAmR11 [5]): greater than 90%
Apparent enhancement of tyramine-induced inhibition of forskolin-stimulated cAMP levels (AmphiAmR11 [2]; 1 μM antagonist): appeared to enhance
Block of tyramine-induced inhibition of forskolin-stimulated cAMP levels (AmphiAmR11 [2]; 1 μM antagonist): no significant blocking effect
Blocking effect on tyramine-induced response at reduced antagonist concentrations (AmphiAmR11 [2]; varying concentrations of antagonist): no blocking effect
Effect of antagonist on ERK1/2 phosphorylation in the absence of dopamine (AmphiAmR11 [3]): increase in ERK1/2 phosphorylation
Block of dopamine-induced ERK1/2 activation (AmphiAmR11 [4]): no significant effect
Agonist activity at human 5HT1A receptor (human 5HT1A receptor): partial agonist activity
